What all share (test): NCI-60 cell line screen, 48 h
The subject of assay [1] is MALME-3M melanoma.
Assay [2] concerns SF-268 CNS.
The test system of assay [3] is SN12C renal.
Assay [4] relates to OVCAR-5 ovarian.
The test system of assay [5] is UACC-257 melanoma.
Assay [6] has as its system OVCAR-8 ovarian.
Assay [7] deals with SNB-19 CNS.
Assay [8] concerns HT29 colon.
Assay [9] has as its system K-562 leukemia.
In assay [10] the test system is MDA-MB-435.

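Values below derive from 48-hour exposures of cells grown in 96-well plates, with endpoints linearly interpolated between the two concentrations bracketing the appropriate inhibition level. Here, GI50 denotes the concentration required for 50% inhibition of growth. TGI is the concentration that stops growth completely.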 Where a SMILES comes first, the peptide text is derived from it. [ ]: non-standard residue; d: D form. NMeY = CN[C@@H](Cc1ccc(O)cc1)C(=O)O; dNMeF = CN[C@H](Cc1ccccc1)C(=O)O; Sar = CNCC(=O)O

Take `CC1(O)CC2(O)C=CC3=C(C(=O)c4cccc(O)c4C3=O)C2(O)C(=O)C1O` (stereo not drawn): the TGI came to 0.966 µM in assay [1]; 17.1 µM in assay [2]; 6.66 µM in assay [3]; 9.55 µM in assay [4]; 2.67 µM in assay [5]; 8.08 µM in assay [6]. Also, the TGI in assay [7] came out at 30.4 µM; in [8] it was 5.95 µM; in assay [9] it was 10.4 µM; in [10] it was 3.32 µM.

`CC[N+]1(C)CCC(O)(c2ccccc2)C(C(=O)c2ccccc2)C1` (stereo not drawn): the TGI in [1] worked out at 32.6 µM; in [2], 59.8 µM; in [3], 21.6 µM; in assay [4], 35.5 µM; in [5], 32.7 µM; in assay [6], 59.1 µM. Besides, the TGI in assay [7] was 24.5 µM; in [8], 31.8 µM; in assay [9], 13.2 µM; in [10], 34.2 µM.

Regarding `C=CC(=O)N1CCC([C@@H]2CCNc3c(C(N)=O)c(-c4ccc(Oc5ccccc5)cc4)nn32)CC1`, the GI50 in [1] was 11.6 µM; in [2], 9.07 µM; in assay [3], 12.1 µM; in assay [4], 22.2 µM; in assay [5], 16.5 µM; in assay [6], 13.8 µM. Also, the GI50 is 16.9 µM in assay [7], 16.5 µM in assay [8], 25.3 µM in [9] and 17.8 µM in assay [10]. Moreover, the TGI in [1] was 26.8 µM; in [2] it was 34.4 µM; in [3], 80.4 µM; in assay [4], > 100 µM; in [5], 50.4 µM; in assay [6], 74.2 µM. Moreover, the TGI in [7] is > 100 µM; in assay [8], > 71.1 µM; in assay [9], > 100 µM; in assay [10] it was 44.6 µM.

As for `O=C(O)CCCSc1nc2ccccc2s1`, the TGI in assay [1], in [2], in assay [3], in assay [4], in [5] and in assay [6] was > 100 µM in each case. Also, the TGI in assay [7], in assay [8], in assay [9] and in [10] was > 100 µM throughout.

`O=C(NC(=S)NNC(=S)NNc1ccccc1)c1ccccc1`: the GI50 was 24.2 µM in assay [1]; 8.55 µM in [2]; 4.87 µM in [3]; > 100 µM in assay [4]; 4.68 µM in assay [5]; 4.68 µM in assay [6]. Besides, the GI50 in assay [7] is 13 µM; in [8] it was 15.1 µM; in [9], 1.13 µM; in [10] it was 3.47 µM. For the same compound, the TGI in assay [1], in [2], in assay [3], in assay [4], in assay [5] and in [6] was > 100 µM in each case. For the same compound, the TGI in assay [7], in assay [8], in assay [9] and in [10] was > 100 µM in each case.

In the case of `CCOC(=O)Cn1c(C)c(/C=N/NC(=O)c2cc3c(ccc4ccccc43)o2)c2ccccc21`, the GI50 in assay [1] is 0.575 µM; in assay [2], 1.03 µM; in assay [3], 0.707 µM; in [4] it was 0.872 µM; in [5], 2.38 µM; in [6], 0.486 µM. For the same compound, the GI50 in assay [7] was 0.478 µM; in [8], 0.355 µM; in assay [9], 0.342 µM; in assay [10], 0.0474 µM. Further, the TGI is 3.22 µM in [1]; 3.85 µM in assay [3]; 10.7 µM in assay [4]; > 30.4 µM in [5]; 16.3 µM in assay [7]; 1.9 µM in [8]. The TGI was > 100 µM in assay [9] and 0.251 µM in assay [10].

`CC[C@H](C)[C@@H]1NC(=O)[C@H](Cc2ccc(O)cc2)N(C)C(=O)[C@H](Cc2ccccc2)NC(=O)CN(C)C(=O)[C@@H]2CCCN2C(=O)[C@@H](Cc2ccccc2)N(C)C(=O)[C@H](CC(C)C)NC1=O` (cyclo(F[NMeY]IL[dNMeF]P[Sar])): the GI50 in assay [1] was 0.164 µM; in [2], 0.217 µM; in [3], 0.139 µM; in [4] it was 0.299 µM; in [5], 0.267 µM; in [6] it was 0.352 µM. For the same compound, the GI50 in assay [7] is 0.146 µM; in assay [8] it was 0.243 µM; in assay [9] it was 0.262 µM; in assay [10] it was 0.205 µM. Besides, the TGI in assay [1] stood at 1.81 µM; in [2], 6.94 µM; in assay [3], 5.79 µM; in assay [4], 8.09 µM; in [5], 3.05 µM; in assay [6], 12.8 µM. The TGI in assay [7] was 6.92 µM; in [8], 7.2 µM; in assay [9], 31.4 µM; in [10], 1.7 µM.

In the case of `COc1cccc(-n2ncc3c(N/N=C/c4ccc(S(C)(=O)=O)cc4)ncnc32)c1`, the GI50 was 4.21 µM in [1]; 5.98 µM in assay [2]; 9.88 µM in assay [3]; > 25 µM in assay [4]; > 18 µM in assay [5]; 6.11 µM in [6]. For the same compound, the GI50 in [7] is 11.5 µM; in [8] it was 3.49 µM; in assay [9] it was > 6.65 µM; in [10], 3.55 µM. Besides, the TGI in assay [1] was > 25 µM; in [2], 13.5 µM; in assay [3], > 25 µM; in [4] it was > 25 µM; in [5], > 25 µM; in assay [6], 15.6 µM. Also, the TGI in assay [7] was > 25 µM; in assay [8], 10.5 µM; in assay [9], > 25 µM; in assay [10], > 25 µM.

On to `C[C@]12CCC3c4ccc(O)cc4CCC3C1Cc1ccc(O)cc12` (stereo partly drawn), for which the GI50 is 10.8 µM in assay [1]; 11.4 µM in [2]; 11.8 µM in [3]; 14.5 µM in [4]; 14.4 µM in [5]; 15.8 µM in assay [6]. In addition, the GI50 in assay [7] is 10.6 µM; in [8], 6.13 µM; in assay [9] it was 0.794 µM; in [10], 2.44 µM. Further, the TGI in [1] turned out to be 29.1 µM; in assay [2], 44.2 µM; in [3], 25.8 µM; in assay [4], 27.6 µM; in assay [5] it was 28.5 µM; in assay [6], 33.8 µM. In addition, the TGI in assay [7] came to 22.7 µM; in [8], 20.6 µM; in [9] it was 11.2 µM; in assay [10] it was 11.1 µM.

The record behind these values is PubChem BioAssay (NCI).
